Data on 6 compounds can be found in article PMC4104029, “Mechanism of Action of Compound-13: An α1-Selective Small Molecule Activator of AMPK” (Chemistry & Biology, 2014).

In assay [1] the target is T1, AMPK α1β1γ1 (Homo sapiens, UniProt P54619+Q13131).
T1 construct: purchased Sigma and Signalchem; host or cells: Spodoptera frugiperda (Sf9)
Description: AMPK phosphotransferase assay, allosteric activation, cell-free. Type of assay: biochemical. The note with it: 1 μM C2, ADP 0–200 μM. On the procedure: Figure 1 The AMP Analog C2 Is a Potent AMPK Activator in Cell-Free Assays with Selectivity for α1 Complexes (A) The structure of the endogenous activator of AMPK, AMP; the AMP mimetic, C2; and the classical AMP mimetic, ZMP, and other AMPK activators are shown. […] (B) Recombinant AMPK complexes (α1β1γ1, α2β1γ1, α1β1γ2, and α1β2γ1) expressed in Spodoptera frugiperda were assayed for allosteric activation by AMP or C2. Results are expressed as the increase in activity relative to controls without ligand and represent the mean ± SD for three independent experiments. (C) Enzymes allosterically regulated by AMP (PFK1 and FBP1) or using AMP as a substrate (AMPD1, AK, and 5′-NT) were assayed in the presence of C2 (≤ 100 μM). Enzymes allosterically regulated by AMP were screened for both agonism and antagonism, the latter in the presence of AMP at ≈ EC50. All enzymes were unaffected by [C2] ≤ 100 μM. Representative data are shown for the effects of AMP and C2 on PFK1 and FBP1 activity. Results are representative of three independent experiments conducted on one enzyme preparation. TEXT PRINTED IN THE PICTURE: (B) C2: α1β1γ1: EC50: 0.011 ± 0.001 μM; α2β1γ1: EC50: 0.015 ± 0.003 μM; α1β1γ2: EC50: 0.024 ± 0.004 μM; α1β2γ1: EC50: 0.015 ± 0.002 μM | (B) AMP: α1β1γ1: EC50: 3.7 ± 0.6 μM; α2β1γ1: EC50: 3.2 ± 0.2 μM; α1β1γ2: EC50: 2.5 ± 0.3 μM; α1β2γ1: EC50: 3.2 ± 0.4 μM | (C) C2: PFK1: EC50: ND; FBP1: IC50: ND | (C) AMP: PFK1: EC50: 33 ± 3 μM; FBP1: IC50: 5 ± 0.2 μM […]
We initially compared the ability of C2 and AMP to activate various recombinant human AMPK complexes, expressed in insect cells, in cell-free assays (Figure 1B). As reported previously using rat liver complexes separated by immunoprecipitation ([Salt et al., 1998]), the allosteric activation of α1 complexes by AMP was less than that of α2 complexes. […] Similar results were obtained with other permutations of β and γ subunits in complex with α2 (data not shown). We also tested the effects of C2 and AMP on recombinant human α1β1γ1 and α2β1γ1 complexes expressed in E. coli and obtained similar results (data not shown).
AMPK phosphotransferase activity was assayed in reactions (50 μl) containing 50 mM HEPES, pH 7.4, 10 mM MgCl2, 0.1 mM EGTA, 1 mM DTT, 0.01% BRIJ-35, 100 μM [γ-^32P]ATP (∼250 CPM⋅pmol^−1) and 200 μM AMARA (AMARAASAAALARRR). Reactions were started by the addition of AMPK (5 mU), incubated for 20 min at 30°C and quenched by spotting onto P81 and immersion in 75 mM H3PO4. Washed filters were dried and [^32P] incorporation determined by Cherenkov counting. AMPK activity in cell extracts was determined by immunoprecipitation with AMPKα1 or AMPKα2 antibodies from 50 μg material, as previously described ([Hunter et al., 2011]). […]

Assay [2] relates to LKB1−/− mouse embryonic fibroblasts. Description: AMPK and ACC phosphorylation in LKB1-null fibroblasts. Format: cell-based. The settings on record: 1 hr; AICAR 2 mM. On the procedure: AICAR (0.5 mM) was included as a positive control. Cell lysates were analyzed using western blotting with the indicated antibodies. (B) AMPKα1 or AMPKα2 complexes were immunoprecipitated from hepatocyte extracts prepared as described in (A) and assayed for kinase activity using 0.2 mM AMARA and 0.1 mM ATP. Results are expressed as the mean Pi incorporated in picomoles per minute-milligram ± SD. (C) Hepatocytes were stimulated with 30 μM C13 for the indicated times prior to harvesting, with AICAR (0.5 mM, 1 hr) as positive control. Lysates were analyzed using western blotting with the indicated antibodies. (D) Mouse hepatocytes were treated with the indicated compounds for 1 hr, and adenine nucleotide ratios were determined using capillary electrophoresis of perchloric acid extracts. […] Lysates were analyzed using western blotting with the indicated antibodies. (F) Wild-type (LKB1^+/+) or LKB1-null (LKB1^−/−) mouse embryonic fibroblasts were incubated with the indicated concentrations of C13 for 1 hr. AICAR (2 mM) was included as a positive control. Lysates were analyzed using western blotting with the indicated antibodies.

The test system of assay [3] is β1-KO hepatocytes. Put plainly: Lipogenesis, [3H]acetate incorporation into total lipids. Format: cell-based, mouse. The note with it: 100 μM, 4 hr. As for the experimental part:
(§1) Figure 7 C13 Activates Both β1 and β2 Complexes in Mouse Hepatocytes (A) Hepatocytes from WT, AMPKβ1^−/−, and AMPKβ2^−/− mice were incubated with the indicated concentrations of C13 for 1 hr. A769662 (100 μM) was included as a positive control. Lysates were analyzed using western blotting with the indicated antibodies. (B) Mouse hepatocytes from the indicated genotypes were treated with the indicated concentrations of C13 and labeled with [^3H]acetate for 4 hr. Lipogenesis was estimated from the incorporation of acetate into total lipids. Results are expressed as the mean acetate incorporated in micromoles per gram-hour ± SD.
Lipid synthesis was determined by labeling adherent cultures of primary hepatocytes with [1-^14C]acetate. After overnight culture, hepatocytes (5 × 10^5) were washed with warm PBS and allowed to rest for 3 hr in fresh M199. Cells were treated with vehicle (0.1% DMSO) or the indicated compounds and labeled with 1 mCi⋅mmol^−1 [1-^14C]acetate for 3 hr. […] Lipogenesis in hepatocytes from AMPKβ1/β2-KO mice was determined in media containing [^3H]acetate (0.2 mCi⋅mmol^−1). After 4 hr labeling, total lipids were extracted using the method of [Bligh and Dyer (1959)], and incorporated [^3H] was determined by scintillation counting. The results are expressed as micromoles acetate incorporated per gram-hour.

Assay [4] relates to β1-KO hepatocytes. Put plainly: AMPK signaling, western blotting. Type of assay: cell-based, mouse. The note with it: 1 hr; A769662 100 μM. On the procedure:
as §1
A general note: In western blotting, separated proteins are transferred to a membrane and probed.

Assay [5] has as its system WT and β2-KO hepatocytes. Description: AMPK signaling, western blotting. The settings on record: 1 hr; A769662 100 μM. Type of assay: cell-based, mouse. As for the experimental part: as §1
Assay [6] relates to mouse hepatocytes. Description: Adenine nucleotide ratios by capillary electrophoresis. Format: cell-based. The settings on record: 1 hr; C13 up to 100 μM. As for the experimental part:
(§2) Figure 4 The C2 Prodrug, C13, Potently Activates AMPK in Mouse Primary Hepatocytes (A) Isolated mouse hepatocytes were incubated with vehicle or the indicated concentrations of C13 for 1 hr. AICAR (0.5 mM) was included as a positive control. Cell lysates were analyzed using western blotting with the indicated antibodies. (B) AMPKα1 or AMPKα2 complexes were immunoprecipitated from hepatocyte extracts prepared as described in (A) and assayed for kinase activity using 0.2 mM AMARA and 0.1 mM ATP. Results are expressed as the mean Pi incorporated in picomoles per minute-milligram ± SD. (C) Hepatocytes were stimulated with 30 μM C13 for the indicated times prior to harvesting, with AICAR (0.5 mM, 1 hr) as positive control. Lysates were analyzed using western blotting with the indicated antibodies. (D) Mouse hepatocytes were treated with the indicated compounds for 1 hr, and adenine nucleotide ratios were determined using capillary electrophoresis of perchloric acid extracts. (E) Mouse hepatocytes were preincubated with 30 μM STO-609 for 30 min prior to stimulation with 30 μM C13 for 1 hr or with 1 μM ionomycin for 30 min. Lysates were analyzed using western blotting with the indicated antibodies. (F) Wild-type (LKB1^+/+) or LKB1-null (LKB1^−/−) mouse embryonic fibroblasts were incubated with the indicated concentrations of C13 for 1 hr. AICAR (2 mM) was included as a positive control. Lysates were analyzed using western blotting with the indicated antibodies. Results are representative of three independent experiments. […]
Isolation of primary hepatocytes. Hepatocytes were isolated from fasted mice by collagenase digestion (Berry and Friend, 1969). Cells were seeded in M199 containing 100 U/ml penicillin G, 100 µg/ml streptomycin, 0.1 % (w/v) BSA, 10 % (v/v) FBS, 10 nM insulin, 200 nM triiodothyronine and 100 nM dexamethasone. […]
Nucleotide measurements. […] Nucleotides were separated and quantified by capillary electrophoresis using a Beckman P/ACE instrument as previously described (Hawley, et al., 2010).

Assay [7] deals with AMPK signaling in mouse primary hepatocytes. Put plainly: AMPK signaling in primary hepatocytes, western blotting. Type of assay: cell-based. The note with it: 30 μM STO-609 for 30 min, 1 μM ionomycin. On the procedure:
as §2
Isolation of primary hepatocytes. Hepatocytes were isolated from fasted mice by collagenase digestion (Berry and Friend, 1969). Cells were seeded in M199 containing 100 U/ml penicillin G, 100 µg/ml streptomycin, 0.1 % (w/v) BSA, 10 % (v/v) FBS, 10 nM insulin, 200 nM triiodothyronine and 100 nM dexamethasone. Post attachment (3-4 h), cells were cultured overnight in M199 supplemented with antibiotics and 100 nM dexamethasone and used for experiments the following morning.
Western blotting. Cells were stimulated as indicated, rinsed with ice-cold PBS and lysed with 50 mM tris pH 7.5, 1 mM EDTA, 1 mM EGTA, 0.27 M sucrose, 1 % (w/v) Triton X-100, 20 mM glycerol-2-phosphate, 50 mM NaF, 5 mM Na4P2O7, 1 mM Na3VO4, 1 mM DTT, 0.5 mM PMSF, 1 mM benzamidine and 1 µM microcystin-LR. Lysates were clarified at 3000 g for 5 min at 4 °C and normalised using Bradford reagent and BSA as standard. Lysates (20 µg) were denatured in Laemlli buffer, separated on 7.5 % tris-glycine gels and transferred to PVDF in Towbin buffer. Membranes were blocked in 5 % (w/v) milk for 1 h at RT and incubated overnight in the indicated primary antibodies at 4 °C. Membranes were developed using HRP-conjugated antibodies and ECL reagent.
Nucleotide measurements. Cultured hepatocytes were incubated with the indicated compounds and washed with ice-cold 0.9 % (w/v) saline before extraction in 5 % perchloric acid. Precipitated material was removed by centrifugation (13,000 RPM, 3 min) and supernatant neutralised with 1:1 trioctylamine:Freon-113 (Khym, 1975). Nucleotides were separated and quantified by capillary electrophoresis using a Beckman P/ACE instrument as previously described (Hawley, et al., 2010).

T1 sequence (Q13131 whole entry): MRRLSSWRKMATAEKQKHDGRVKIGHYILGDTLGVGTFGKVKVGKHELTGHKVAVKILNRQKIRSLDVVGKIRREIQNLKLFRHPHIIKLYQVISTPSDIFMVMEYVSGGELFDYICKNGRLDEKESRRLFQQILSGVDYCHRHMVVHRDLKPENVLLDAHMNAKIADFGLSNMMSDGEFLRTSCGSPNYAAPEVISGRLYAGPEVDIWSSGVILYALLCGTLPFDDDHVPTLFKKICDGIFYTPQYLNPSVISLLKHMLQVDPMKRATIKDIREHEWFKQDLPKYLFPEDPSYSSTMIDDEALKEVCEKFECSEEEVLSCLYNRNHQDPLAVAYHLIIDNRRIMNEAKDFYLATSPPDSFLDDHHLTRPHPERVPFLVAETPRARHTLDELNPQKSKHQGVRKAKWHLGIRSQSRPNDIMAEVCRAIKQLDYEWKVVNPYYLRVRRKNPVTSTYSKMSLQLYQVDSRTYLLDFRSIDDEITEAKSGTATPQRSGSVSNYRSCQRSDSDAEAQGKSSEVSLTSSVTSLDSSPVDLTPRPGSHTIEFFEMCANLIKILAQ
T1 sequence (Q9Y478 whole entry partner): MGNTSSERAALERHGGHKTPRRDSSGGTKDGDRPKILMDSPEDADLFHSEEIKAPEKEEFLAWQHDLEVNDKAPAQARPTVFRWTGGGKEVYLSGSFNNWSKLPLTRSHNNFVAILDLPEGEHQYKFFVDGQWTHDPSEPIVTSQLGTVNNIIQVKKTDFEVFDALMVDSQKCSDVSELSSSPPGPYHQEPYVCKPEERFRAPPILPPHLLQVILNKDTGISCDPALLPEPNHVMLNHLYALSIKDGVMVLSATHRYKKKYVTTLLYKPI
T1 sequence (P54619 whole entry): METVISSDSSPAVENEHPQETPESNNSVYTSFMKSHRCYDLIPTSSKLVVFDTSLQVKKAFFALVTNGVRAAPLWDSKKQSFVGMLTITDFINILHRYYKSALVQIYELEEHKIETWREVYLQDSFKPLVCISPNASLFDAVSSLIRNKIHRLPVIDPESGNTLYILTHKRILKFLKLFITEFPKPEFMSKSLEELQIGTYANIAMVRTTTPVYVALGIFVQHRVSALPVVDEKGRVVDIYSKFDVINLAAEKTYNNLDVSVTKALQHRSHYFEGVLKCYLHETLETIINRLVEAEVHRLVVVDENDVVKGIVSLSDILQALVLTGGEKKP

Regarding `Nc1ncnc2c1ncn2[C@@H]1O[C@H](COP(=O)(O)OP(=O)(O)O)[C@@H](O)[C@H]1O` [ADP, reference compound], the “effect on activation by C2” value in assay [1] is on record as “antagonized”.
`NC(=O)c1ncn([C@@H]2O[C@H](CO)[C@@H](O)[C@H]2O)c1N` [AICAR, 5-aminoimidazole-4-carboxamide riboside, reference compound]: in assay [2], the “compound-induced phosphorylation of AMPK and ACC” value was “abolished”.
On to `N#Cc1c(O)c2c(-c3ccc(-c4ccccc4O)cc3)csc2[nH]c1=O` [Compound A769662, reference compound], for which the suppression of lipogenesis result in assay [3] is “failed to suppress lipogenesis”. Also, the “stimulation of AMPK (Thr172 phosphorylation)” value in assay [4] is listed as “failed to stimulate”. Besides, in assay [5], the “phosphorylation of Thr172 and ACC, as well as Raptor” value is “robustly stimulated”.
In the case of `OO` [Compound H2O2], in assay [6], the “ADP:ATP and AMP:ATP ratios” value is “increased”.
`O=[N+]([O-])c1ccc(O)c([N+](=O)[O-])c1` [DNP, 2,4-dinitrophenol]: the “ADP:ATP and AMP:ATP ratios” value in assay [6] is “increased”.
In the case of `O=C(O)c1ccc2c3c1cccc3c(=O)n1c3ccccc3nc21` [STO-609, reference compound], in assay [7], the “phosphorylation of AMPK and ACC by ionomycin after prior incubation” value is recorded as “almost completely abolished”.
